Several values for one entry are separate records, joined by “and”; a condition that tells them apart may be missing. Identical values can stand only once.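 48-hour exposure; five concentrations; linearly interpolated endpoints. GI50 = concentration required for 50% inhibition of growth. TGI denotes the concentration required for complete inhibition of growth.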
What was measured:
Assay in all cases: NCI tumour cell line growth inhibition, 48 h
CAKI-1 renal = system: CAKI-1 renal
DU-145 prostate = system: DU-145 prostate
A549 NSCLC = system: A549 NSCLC
HS 578T breast = system: HS 578T breast
U251 CNS = system: U251 CNS
NCI-H522 lung = system: NCI-H522 lung
SF-295 CNS = system: SF-295 CNS
NCI-H226 lung = system: NCI-H226 lung
A498 renal = system: A498 renal
T-47D breast = system: T-47D breast

Row | SMILES | GI50 (CAKI-1 renal) [µM] | TGI (CAKI-1 renal) [µM] | GI50 (DU-145 prostate) | TGI (DU-145 prostate) [µM] | GI50 (A549 NSCLC) | TGI (A549 NSCLC) [µM] | GI50 (HS 578T breast) [µM] | TGI (HS 578T breast) [µM] | GI50 (U251 CNS) | TGI (U251 CNS) [µM] | GI50 (NCI-H522 lung) [µM] | TGI (NCI-H522 lung) [µM] | GI50 (SF-295 CNS) | TGI (SF-295 CNS) [µM] | TGI (NCI-H226 lung) [µM] | TGI (A498 renal) [µM] | GI50 (NCI-H226 lung) [µM] | GI50 (A498 renal) | TGI (T-47D breast) [µM] | GI50 (T-47D breast) [µM]
1 | COc1cc2c(c(OC)c1OC)-c1ncc3cc4c(cc3c1C2)OCO4 | 18 | 71.7 | 23.2 µM | > 100 | 21.1 µM | 97.9 | 14.7 | 49.6 | 21.6 µM | 54.2 | 18.9 | 45.9 | 15.6 µM | 39.8 |  |  |  |  |  | 
2 | O=C(/C=C/c1ccccc1Cl)NC1C=Nc2ccc([N+](=O)[O-])cc2NC1 (configuration not stated) |  | > 100 |  |  |  | > 100 |  |  |  | > 100 |  | > 100 |  | > 100 | > 100 | > 100 |  |  |  | 
3 | O=P1(c2ccccc2)CCCCC1 |  |  |  |  |  | > 100 |  |  |  | > 100 |  |  |  | > 100 | > 100 | > 100 |  |  |  | 
4 | COc1cc(C=O)c(-c2cc(OC)c(OC)cc2C=O)cc1OC |  | > 100 |  |  |  | > 100 |  |  |  | > 100 |  | > 100 |  | > 100 | > 100 | > 100 |  |  |  | 
5 | N#CC(C(=O)C(=O)Nc1ccc(Cl)cc1)c1ccccc1 (configuration not stated) |  | > 100 |  |  |  | > 100 |  |  |  | > 100 |  |  |  | > 100 | > 100 | > 100 |  |  |  | 
6 | CC(=O)O[C@H]1CCC2[C@@H]3CCC4Nc5[nH]ncc5C[C@]4(C)C3CC[C@@]21C (some centres not stated) |  | > 100 |  |  |  | > 100 |  |  |  | > 100 |  | 83.2 |  | > 100 | > 100 | > 100 |  |  |  | 
7 | CCCO/S(=N\S(=O)(=O)c1ccccc1)c1ccccc1[N+](=O)[O-] (configuration not stated) |  | > 100 |  |  |  | > 100 |  |  |  | > 100 |  | > 100 |  | > 100 | > 100 |  |  |  |  | 
8 | CC(=O)[O][Ga]([Br])[O]C(C)=O | > 100 | > 100 |  |  | > 100 µM | > 100 |  |  | > 100 µM | > 100 | > 100 | > 100 | > 100 µM | > 100 | > 100 | > 100 | > 100 | > 100 µM |  | 
9 | c1ccc2c(c1)c1c(c3ccccc32)CN2CCCC2C1 (configuration not stated) |  | > 100 |  | > 100 |  | 17.9 |  | 13.8 |  | 23.1 |  | 9.9 |  | > 35.5 |  | 12.1 |  |  | > 100 | 
10 | CCn1c(=O)c2c(=O)c3c4c(oc3oc2c2ccccc21)C(=O)c1ccccc1C4=O |  |  | > 100 µM | > 100 | > 100 µM | > 100 | 19.2 | > 100 | > 27.1 µM | > 100 | > 100 | > 100 | > 24.2 µM | > 100 | > 100 | > 100 | > 100 | 0.461 µM | 2.87 | 0.372
11 | Cc1nc([N+](=O)[O-])cn1CC(=N)N |  |  |  |  |  | > 100 |  |  |  | > 100 |  |  |  | > 100 | > 100 | > 100 |  |  |  | 
12 | CN[C@@H](C)[C@@H](NC)c1ccccc1 |  | > 100 |  |  |  | > 100 |  |  |  | 2.9 |  | > 100 |  | > 100 | > 100 | > 100 |  |  |  | 
13 | CC(C)N(CCn1c2c3ccccc3ccc2c2oc(=O)c3ccccc3c21)C(C)C |  | > 100 |  |  |  | > 100 |  |  |  | > 100 |  | > 100 |  | > 95.1 | > 100 | > 100 |  |  |  | 
14 | CC1COC(C)(C)P(=O)(c2ccccc2)C1 (configuration not stated) |  |  |  |  |  | > 100 |  |  |  | > 100 |  | > 100 |  | > 100 | > 100 | > 100 |  |  |  | 
15 | O=[N+]([O-])c1ccc(N2N=C(c3ccc(NCc4nc5ccccc5[nH]4)cc3)CC2c2ccco2)cc1 (configuration not stated) |  | > 100 |  |  |  | > 100 |  |  |  | > 100 |  | 54 |  | 74.7 |  | > 100 |  |  |  | 
16 | CC1=C(C(=O)Nc2ccc(Cl)c(Cl)c2)C(c2cccc(Oc3ccccc3)c2)NC(=O)N1 (configuration not stated) | 7.64 | 20.4 | 6.5 µM | 33.3 | 3.94 µM | > 50 | 6.72 | 22.3 | 5.28 µM | 14.7 | 4.47 | 26 | 5.57 µM | 16.6 | 19.8 |  | 8.36 |  | > 50 | 22.9
17 | COC(=O)[C@@H](C)C[C@H](Cc1ccccc1)NC(=O)c1csc([C@@H](C[C@H](C(C)C)N(C)C(=O)[C@@H](NC(=O)[C@H]2CCCCN2C)C2CCCCC2)OC(C)=O)n1 |  |  | 0.000291 µM and 0.0025 µM |  | 0.0022 µM and 0.0025 µM | > 25 | 0.0026 |  | 0.000533 µM and 0.0025 µM | > 25 |  |  | 0.000346 µM and 0.0025 µM | > 25 | > 25 |  | 0.0025 | 0.000272 µM and 0.0025 µM |  | 
18 | CCOP(=O)(OCC)OC1C=CC2CCC1C2 (configuration not stated) |  | > 100 |  |  |  | > 100 |  |  |  | > 100 |  | > 100 |  | > 100 | > 100 | > 100 |  |  |  | 
19 | Cc1cc(C)c(/C=C2\C(=O)Nc3ccc(NC(=O)CCCCCCC(=O)NO)cc32)[nH]1 | > 100 | > 100 | 1.49 µM | > 100 | > 100 µM | > 100 | 2.96 | > 100 | 0.529 µM | 10.4 | 0.208 | 1.82 | 1.44 µM | > 45.7 | > 100 | 18.2 | > 100 | 1.4 µM |  | 
20 | O=C1OCC2C1C1c3ccccc3C(O)c3ccccc3C21 (configuration not stated) |  | > 100 |  |  |  | > 100 |  |  |  | > 100 |  |  |  | > 100 | > 100 | > 100 |  |  |  | 
21 | O=C(Nc1ccc(F)cc1)c1cc(S(=O)(=O)Nc2nc3ccccc3o2)c(SCc2ccccc2)cc1Cl | 18.4 | 37.7 | 19.2 µM | 35.4 | 18.3 µM | 38.4 | 19.1 | 44.5 | 17.3 µM | 31.7 |  |  | 15 µM | 29.2 | 28.4 | 32.5 | 12.1 | 17.2 µM | > 100 | 28.3

Reference: PubChem BioAssay (NCI)
